# Reference: ChEMBL document CHEMBL3044783, “Effects of pyrrolizidine alkaloids on the performance of plant-parasitic and free-living nematodes” (Pest Manag Sci, 2009)
# Calls of active or inactive are those of the source. No cut-off for these calls is given here.
# What was measured:
# Rhabditis sp. [1] = experiment: Nematicidal activity against juvenile stage of Rhabditis sp. assessed as reduction of nematode development at 1 mg/mL after 72 hr by stereomicroscopic analysis (reference value: 62%); format: functional; parameters: scale not given: the % may be the effect or the level left
# Meloidogyne incognita [2] = experiment: Nematicidal activity against juvenile stage of Meloidogyne incognita (root-knot nematode) assessed as inhibition of mobility after 20 hr; format: functional
# Rhabditis sp. [3] = experiment: Nematicidal activity against juvenile stage of Rhabditis sp. assessed as inhibition of mobility after 20 hr; format: functional, organism-based
# Meloidogyne incognita [4] = experiment: Nematicidal activity against juvenile stage of Meloidogyne incognita (root-knot nematode) assessed as inhibition of mobility incubated for 168 hr followed by compound wash out measured after 24 hr; format: functional
# Pratylenchus penetrans [5] = experiment: Nematicidal activity against juvenile stage of Pratylenchus penetrans assessed as inhibition of mobility after 168 hr; format: functional
# Rhabditis sp. [6] = experiment: Nematicidal activity against juvenile stage of Rhabditis sp. assessed as reduction of nematode development at 0.01 mg/mL after 72 hr by stereomicroscopic analysis (reference value: 62%); format: functional; parameters: scale not given: the % may be the effect or the level left
# Meloidogyne incognita [7] = experiment: Nematicidal activity against juvenile stage of Meloidogyne incognita (root-knot nematode) assessed as inhibition of mobility after 168 hr; format: functional
# Rhabditis sp. [8] = experiment: Nematicidal activity against juvenile stage of Rhabditis sp. assessed as reduction of nematode development at 0.1 mg/mL after 72 hr by stereomicroscopic analysis (reference value: 62%); format: functional; parameters: scale not given: the % may be the effect or the level left
# Heterodera schachtii [9] = experiment: Nematicidal activity against juvenile stage of Heterodera schachtii assessed as inhibition of mobility after 168 hr; format: functional
# Rhabditis sp. [10] = experiment: Nematicidal activity against juvenile stage of Rhabditis sp. assessed as inhibition of mobility after 168 hr; format: functional
# Pratylenchus penetrans [11] = experiment: Nematicidal activity against juvenile stage of Pratylenchus penetrans assessed as inhibition of mobility incubated for 168 hr followed by compound wash out measured after 24 hr; format: functional
# Heterodera schachtii [12] = experiment: Nematicidal activity against juvenile stage of Heterodera schachtii assessed as inhibition of mobility after 20 hr; format: functional
# Rhabditis sp. [13] = experiment: Nematicidal activity against juvenile stage of Rhabditis sp. assessed as reduction of fecundity at 0.1 mg/mL after 72 hr by stereomicroscopic analysis relative to untreated control; format: functional, organism-based
# Pratylenchus penetrans [14] = experiment: Nematicidal activity against juvenile stage of Pratylenchus penetrans assessed as inhibition of mobility after 20 hr; format: functional
# Heterodera schachtii [15] = experiment: Nematicidal activity against juvenile stage of Heterodera schachtii assessed as inhibition of mobility incubated for 168 hr followed by compound wash out measured after 24 hr; format: functional
# Rhabditis sp. [16] = experiment: Nematicidal activity against juvenile stage of Rhabditis sp. assessed as reduction of fecundity at 0.01 mg/mL after 72 hr by stereomicroscopic analysis relative to untreated control; format: functional, organism-based
Compound,Activity (Rhabditis sp. [1]) [%],MIC50 (Meloidogyne incognita [2]),MIC50 (Rhabditis sp. [3]),MIC50 (Meloidogyne incognita [4]),MIC50 (Pratylenchus penetrans [5]),Activity (Rhabditis sp. [6]) [%],MIC50 (Meloidogyne incognita [7]) [µg/mL],Activity (Rhabditis sp. [8]) [%],MIC50 (Heterodera schachtii [9]),MIC50 (Rhabditis sp. [10]),MIC50 (Pratylenchus penetrans [11]),MIC50 (Heterodera schachtii [12]),Activity (Rhabditis sp. [13]),MIC50 (Pratylenchus penetrans [14]),MIC50 (Heterodera schachtii [15]),Activity (Rhabditis sp. [16])
CO[C@H](C)[C@](O)(C(=O)OCC1=CC[N+]2([O-])CC[C@H](O)[C@@H]12)C(C)C (some centres not stated) [HELIOTRINE N-OXIDE],0,4800 µg/mL,inactive,1700 µg/mL,inactive,68,900,55,77400 µg/mL,inactive,inactive,inactive,Active,inactive,inactive,–
CO[C@H](C)[C@](O)(C(=O)OCC1=CCN2CC[C@H](O)[C@@H]12)C(C)C [HELIOTRINE],0,57900 µg/mL,inactive,800 µg/mL,4800 µg/mL,58,300,32,2100 µg/mL,100 µg/mL,3300 µg/mL,inactive,Active,49800 µg/mL,1100 µg/mL,Active
C/C=C(/C)C(=O)O[C@H]1CC[N+]2([O-])CC=C(COC(=O)[C@](O)(C(C)C)[C@@H](C)OC)[C@H]12 (some centres not stated) [LASIOCARPINE N-OXIDE],–,inactive,–,inactive,–,–,84400,–,inactive,–,–,inactive,–,–,inactive,–
